# Data: patent EP0472573B1, “HERBICIDE RESISTANT MAIZE” (ZENECA LIMITED, priority 1989, dated 1990)
# Biological target: ALS enzyme extracted from Mutant 2 (heterozygous)
# Assay: ALS enzyme assay, heterozygous Mutant 2
# Format: biochemical, Zea mays
# Details: ALS of heterozygous Mutant 2; read-out: ID50% (the source's name)
# Method: (§1) Seeds of generation M₁BC₁ M₁BC₂ of the nine mutants were sprayed pre-emergence with the herbicide imazethapyr (PURSUIT) (Trade Mark) at a rate of 250 g/ha and grown in a growth chamber (16 hour day, 27°C; 8 hour night, 17°C). Plants were harvested after 11 days.
# (§2) Four grams of leaf material were harvested from just above the first leaf axis and ground in a mortar and pestle in 20ml of a solution containing 40mM Tricine (Trade Mark), 10mM EDTA, 5mM pyruvate, 80 »M flavin adenine dinucleotide (FAD), 1mM dithiothreitol (DTT), pH 8, plus 0.8g Polyclar AT. The homogenate was pressed through four layers of muslin and centrifuged at 30,000g for 20 minutes.
# (§3) The supernatant was brought to 65% saturation with ammonium sulphate, left to precipitate for 30 minutes and then centrifuged at 30.000g for 20 minutes. The pellet was resuspended in 2.5ml of 40mM Tricine, 10mM EDTA, 5mM pyruvate, 80»M FAD, 25% (v/v) glycerol, 1mM DTT, pH 8, and desalted into 3.5ml of 40mM Tricine, 10mM EDTA, 25% (v/v) glycerol, 1mM DTT, pH 8.
# (§4) One hundred microlitres of the enzyme extract was used for each assay. Final reagent concentrations were: 120mM Tricine, 50mM pyruvate, 10mM MgCl₂, […], 93»M thiamine pyrophosphate (TPP), pH 8, in the presence or absence of a herbicide of interest, in a volume of 750 »l. Incubations were carried out at 37°C for 30 minutes. Reactions were stopped with 250»l of 1.84M sulphuric acid, and decarboxylation of the acetolactate carried out at 37°C for 75 minutes, or at 60°C for 30 minutes. Assay blanks had sulphuric acid added prior to the enzyme extract. To the samples and blanks 650»l of α-naphthol in 2.73M NaOH/0.16%(w/v) creatine were added followed by incubation at 37°C for 30 minutes. After centrifugation at 30,000g the optical density of the supernatant was read at 540nm.
# (§5) The assay procedure described was carried out on ALS enzyme extracted from each of the nine mutants for the following herbicides: imazethapyr (PURSUIT) imazapyr (ARSENAL) imazaquin (SCEPTER) chlorsulfuron (GLEAN) chlorimuron (CLASSIC) […] (HARMONY) The enzyme activity graphs are given as Figures 3 to 8. In addition, homozygous lines of mutants 1 and 2 which were selected from generation M₁BC₁S₂, were also tested against the same group of herbicides and against representatives of the triazolopyrimidines and phenoxypyrimidines. The chemical structures of these herbicides are shown in Figure 2 of the accompanying drawings.
# (§6) From the enzyme assay data it is possible to derive, as a measure of the degree of inhibition the factor ID50% for each mutant and for each herbicide. This factor is indicative of the herbicide concentration which gives 50% inhibition of the ALS activity in comparison with the wild-type control. It is also possible to derive the fold increase in resistance.
row,SMILES,IC50
1,"CC(C)C1(C)N=C(c2nc3ccccc3cc2C(=O)O)NC1=O (stereo not drawn) [Imazaquin, imazaquin]",20 µM
2,"CCc1cnc(C2=NC(=O)C(C)(C(C)C)N2)c(C(=O)O)c1 (stereo not drawn) [Imazethapyr, 5-ethyl-2-(5-iso-propyl-5-methyl-4-oxo-2-imidazolin-2-yl) nicotinic acid]",230 µM

# Same assay, conditions: Mutant 2; groups Strong, Intermediate, Weak, Zero
row,SMILES,"resistance group, Enzyme Assay"
1,"CC(C)C1(C)N=C(c2nc3ccccc3cc2C(=O)O)NC1=O (stereo not drawn) [Imazaquin, imazaquin]",Intermediate
2,"CCc1cnc(C2=NC(=O)C(C)(C(C)C)N2)c(C(=O)O)c1 (stereo not drawn) [Imazethapyr, 5-ethyl-2-(5-iso-propyl-5-methyl-4-oxo-2-imidazolin-2-yl) nicotinic acid]",Intermediate

# Same assay, conditions: fold increase in resistance vs wild type, heterozygous Mutant 2; 30 min
row,SMILES,Fold Increase
1,"CC(C)C1(C)N=C(c2nc3ccccc3cc2C(=O)O)NC1=O (stereo not drawn) [Imazaquin, imazaquin]",33
2,"CCc1cnc(C2=NC(=O)C(C)(C(C)C)N2)c(C(=O)O)c1 (stereo not drawn) [Imazethapyr, 5-ethyl-2-(5-iso-propyl-5-methyl-4-oxo-2-imidazolin-2-yl) nicotinic acid]",153

# Tested on: Mutant 6 plants
# Assay: Cross-resistance testing (glasshouse dose response), Mutant 6
# Format: in vivo, Zea mays
# Details: pre-emergence spray, assessed after four weeks growth
# Text: (§7) The seeds used in this screen were populations of mixed tolerant and sensitive seed, segregating 1:1, derived from each of the heterogygous, tolerant mutants crossed with homozygous, sensitive UE95. All of the tolerant progeny are heterozygous for tolerance. Each of the mutants identified above were used except mutant 4. The controls were seed of self-pollinated UE95 which was pollinated in the same year as the tolerant lines.
# (§8) One litre of compost was placed in each seed tray of dimensions 19cm x 11cm x 5cm deep and firmed down flat. Two furrows 1 cm deep were drawn in the surface of the compost in each tray and six seeds were sown in each furrow (total twelve seeds per tray). Some trays were sown with 24 seeds, in which case three furrows were made and 8 seeds sown per furrow.
# (§9) In each test each tray contained either the seed of one mutant or of the UE95 control for each herbicide application rate and for the untreated control.
# (§10) Five different types of ALS-inhibitor herbicides were tested on the mutants plus imazethapyr (PURSUIT) as a comparison. Four rates of each were applied; approximately 0.1x, 0.5x, 1x and 4x the estimated field rates for each herbicide. The rates are the same for mutant 3 to 10 but higher rates for chlorimuron (CLASSIC) and lower rates for chlorsulfuron (GLEAN) were applied to mutants 1 and 2.
# (§11) The rates of application used in the screening tests were as follows: chlorimuron (CLASSIC) 4,20,40,160 g/Ha (mutants 1 and 2); and, 8,40,80,320 g/Ha (mutants 3 to 10); chlorsulfuron (GLEAN) 5,25,50,200 g/Ha (mutants 1 and 2); and, 1,5,10,40 g/Ha (mutants 3 to 10); imazaquin (SCEPTER) 30,150,300,1200 g/Ha; triazolopyrimidine 5,25,50,200 g/Ha; phenoxypyrimidine 10,50,100,400 g/Ha; and, imazethapyr (PURSUIT) 30,150,300,1200 g/Ha The triazolopyrimidine and phenoxypyrimidine were formulated in an adjuvant wetting agent known as JF5969 and diluted with water to make a final concentration of 10% JF5969. The remaining compounds were diluted with water only.
# (§12) The spray jet and parameters were as decribed above under "SCREENING". After spraying, the seeds were covered with 0.5 litre of compost and firmed down flat (2.5cm covering) and grown under the conditions described under "SCREENING" above.
# (§13) Visual assessments were made of the plants after four weeks growth. Each plant was scored on a scale of zero to 5 and the height measured from soil surface to the tallest leaf tip. The scoring scale was as follows: 0 - 0 to 10% damage (little or no herbicidal effect) 1 - 11 to 25% damage 2 - 26 to 50% damage 3 - 51 to […] 4 - 81 to 95% damage 5 - 96 to 100% damage (complete death of the plant) In carrying out these assessments, plants which were obviously of the sensitive phenotype were ignored (approximately 50% of the plants). […]
row,SMILES,"resistance group, Dose Response"
1,"CC(C)C1(C)N=C(c2nc3ccccc3cc2C(=O)O)NC1=O (stereo not drawn) [Imazaquin, imazaquin]",Weak
2,"CCc1cnc(C2=NC(=O)C(C)(C(C)C)N2)c(C(=O)O)c1 (stereo not drawn) [Imazethapyr, 5-ethyl-2-(5-iso-propyl-5-methyl-4-oxo-2-imidazolin-2-yl) nicotinic acid]",Intermediate

# Biological target: ALS enzyme extracted from Mutant 3 (heterozygous)
# Assay: ALS enzyme assay, heterozygous Mutant 3
# Format: biochemical, Zea mays
# Details: ALS of heterozygous Mutant 3; read-out: ID50% (the source's name)
# Method: as §1, §2, §3, §4, §5, §6
row,SMILES,IC50
1,"CC(C)C1(C)N=C(c2nc3ccccc3cc2C(=O)O)NC1=O (stereo not drawn) [Imazaquin, imazaquin]",1.5 µM
2,"CCc1cnc(C2=NC(=O)C(C)(C(C)C)N2)c(C(=O)O)c1 (stereo not drawn) [Imazethapyr, 5-ethyl-2-(5-iso-propyl-5-methyl-4-oxo-2-imidazolin-2-yl) nicotinic acid]",2.5 µM

# Same assay, conditions: Mutant 3; groups Strong, Intermediate, Weak, Zero
row,SMILES,"resistance group, Enzyme Assay"
1,"CC(C)C1(C)N=C(c2nc3ccccc3cc2C(=O)O)NC1=O (stereo not drawn) [Imazaquin, imazaquin]",Weak
2,"CCc1cnc(C2=NC(=O)C(C)(C(C)C)N2)c(C(=O)O)c1 (stereo not drawn) [Imazethapyr, 5-ethyl-2-(5-iso-propyl-5-methyl-4-oxo-2-imidazolin-2-yl) nicotinic acid]",Weak

# Same assay, conditions: fold increase in resistance vs wild type, heterozygous Mutant 3; 30 min
row,SMILES,Fold Increase
1,"CC(C)C1(C)N=C(c2nc3ccccc3cc2C(=O)O)NC1=O (stereo not drawn) [Imazaquin, imazaquin]",2
2,"CCc1cnc(C2=NC(=O)C(C)(C(C)C)N2)c(C(=O)O)c1 (stereo not drawn) [Imazethapyr, 5-ethyl-2-(5-iso-propyl-5-methyl-4-oxo-2-imidazolin-2-yl) nicotinic acid]",2

# Biological target: ALS enzyme extracted from Mutant 1 (heterozygous)
# Assay: ALS enzyme assay, heterozygous Mutant 1
# Format: biochemical, Zea mays
# Details: ALS of heterozygous Mutant 1; read-out: ID50% (the source's name)
# Method: as §1, §2, §3, §4, §5, §6
row,SMILES,IC50
1,"CC(C)C1(C)N=C(c2nc3ccccc3cc2C(=O)O)NC1=O (stereo not drawn) [Imazaquin, imazaquin]",150 µM
2,"CCc1cnc(C2=NC(=O)C(C)(C(C)C)N2)c(C(=O)O)c1 (stereo not drawn) [Imazethapyr, 5-ethyl-2-(5-iso-propyl-5-methyl-4-oxo-2-imidazolin-2-yl) nicotinic acid]",> 1000 µM

# Same assay, conditions: Mutant 1; groups Strong, Intermediate, Weak, Zero
row,SMILES,"resistance group, Enzyme Assay"
1,"CC(C)C1(C)N=C(c2nc3ccccc3cc2C(=O)O)NC1=O (stereo not drawn) [Imazaquin, imazaquin]",Strong
2,"CCc1cnc(C2=NC(=O)C(C)(C(C)C)N2)c(C(=O)O)c1 (stereo not drawn) [Imazethapyr, 5-ethyl-2-(5-iso-propyl-5-methyl-4-oxo-2-imidazolin-2-yl) nicotinic acid]",Strong

# Same assay, conditions: fold increase in resistance vs wild type, heterozygous Mutant 1; 30 min
row,SMILES,Fold Increase
1,"CC(C)C1(C)N=C(c2nc3ccccc3cc2C(=O)O)NC1=O (stereo not drawn) [Imazaquin, imazaquin]",250
2,"CCc1cnc(C2=NC(=O)C(C)(C(C)C)N2)c(C(=O)O)c1 (stereo not drawn) [Imazethapyr, 5-ethyl-2-(5-iso-propyl-5-methyl-4-oxo-2-imidazolin-2-yl) nicotinic acid]",>660

# Biological target: ALS enzyme extracted from Mutant 5 (heterozygous)
# Assay: ALS enzyme assay, heterozygous Mutant 5
# Format: biochemical, Zea mays
# Details: ALS of heterozygous Mutant 5; read-out: ID50% (the source's name)
# Method: as §1, §2, §3, §4, §5, §6
row,SMILES,IC50
1,"CC(C)C1(C)N=C(c2nc3ccccc3cc2C(=O)O)NC1=O (stereo not drawn) [Imazaquin, imazaquin]",25 µM
2,"CCc1cnc(C2=NC(=O)C(C)(C(C)C)N2)c(C(=O)O)c1 (stereo not drawn) [Imazethapyr, 5-ethyl-2-(5-iso-propyl-5-methyl-4-oxo-2-imidazolin-2-yl) nicotinic acid]",125 µM

# Same assay, conditions: Mutant 5; groups Strong, Intermediate, Weak, Zero
row,SMILES,"resistance group, Enzyme Assay"
1,"CC(C)C1(C)N=C(c2nc3ccccc3cc2C(=O)O)NC1=O (stereo not drawn) [Imazaquin, imazaquin]",Intermediate
2,"CCc1cnc(C2=NC(=O)C(C)(C(C)C)N2)c(C(=O)O)c1 (stereo not drawn) [Imazethapyr, 5-ethyl-2-(5-iso-propyl-5-methyl-4-oxo-2-imidazolin-2-yl) nicotinic acid]",Intermediate

# Same assay, conditions: fold increase in resistance vs wild type, heterozygous Mutant 5; 30 min
row,SMILES,Fold Increase
1,"CC(C)C1(C)N=C(c2nc3ccccc3cc2C(=O)O)NC1=O (stereo not drawn) [Imazaquin, imazaquin]",42
2,"CCc1cnc(C2=NC(=O)C(C)(C(C)C)N2)c(C(=O)O)c1 (stereo not drawn) [Imazethapyr, 5-ethyl-2-(5-iso-propyl-5-methyl-4-oxo-2-imidazolin-2-yl) nicotinic acid]",83

# Tested on: Mutant 5 plants
# Assay: Cross-resistance testing (glasshouse dose response), Mutant 5
# Format: in vivo, Zea mays
# Details: pre-emergence spray, assessed after four weeks growth
# Text: as §7, §8, §9, §10, §11, §12, §13
row,SMILES,"resistance group, Dose Response"
1,"CC(C)C1(C)N=C(c2nc3ccccc3cc2C(=O)O)NC1=O (stereo not drawn) [Imazaquin, imazaquin]",Intermediate
2,"CCc1cnc(C2=NC(=O)C(C)(C(C)C)N2)c(C(=O)O)c1 (stereo not drawn) [Imazethapyr, 5-ethyl-2-(5-iso-propyl-5-methyl-4-oxo-2-imidazolin-2-yl) nicotinic acid]",Strong

# Tested on: Mutant 9 plants
# Assay: Cross-resistance testing (glasshouse dose response), Mutant 9
# Format: in vivo, Zea mays
# Details: pre-emergence spray, assessed after four weeks growth
# Text: as §7, §8, §9, §10, §11, §12, §13
row,SMILES,"resistance group, Dose Response"
1,"CC(C)C1(C)N=C(c2nc3ccccc3cc2C(=O)O)NC1=O (stereo not drawn) [Imazaquin, imazaquin]",Strong
2,"CCc1cnc(C2=NC(=O)C(C)(C(C)C)N2)c(C(=O)O)c1 (stereo not drawn) [Imazethapyr, 5-ethyl-2-(5-iso-propyl-5-methyl-4-oxo-2-imidazolin-2-yl) nicotinic acid]",Strong
